Structures can show the parent of a compound that is named as a salt. Where two headings read alike, the source gives them in different places.
Legend:
substance P receptor = biological target: T1, substance P receptor (Cavia porcellus, UniProt P30547); assay: Test for binding to guinea-pig substance P receptor (crude lung membrane sample); details: crude guinea-pig lung membrane sample, [3H]substance P; Ki from IC50 and Kd; read-out: Ki
T1 construct: A preparation of a crude lung membrane sample was prepared; from tissue; host or cells: guinea-pig lung (crude membrane sample)
T1 sequence (P30547 whole entry): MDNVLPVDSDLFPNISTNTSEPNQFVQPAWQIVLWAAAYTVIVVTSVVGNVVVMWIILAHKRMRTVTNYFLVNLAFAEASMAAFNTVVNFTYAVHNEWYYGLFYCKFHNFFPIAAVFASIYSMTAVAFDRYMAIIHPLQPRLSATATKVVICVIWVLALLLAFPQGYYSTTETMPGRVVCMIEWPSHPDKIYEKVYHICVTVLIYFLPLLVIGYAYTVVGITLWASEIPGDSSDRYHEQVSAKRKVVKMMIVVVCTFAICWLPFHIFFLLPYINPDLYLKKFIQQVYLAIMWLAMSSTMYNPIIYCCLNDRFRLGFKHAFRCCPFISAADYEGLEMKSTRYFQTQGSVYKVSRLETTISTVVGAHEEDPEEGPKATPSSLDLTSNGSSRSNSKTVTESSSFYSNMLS
Description: A preparation of a crude lung membrane sample was prepared, and a test for binding of a test substance to the sample was performed according to the method described in EP0336230A2.
The binding effect of the test substance to a substance P receptor was calculated as an affinity (Ki) of the test substance for the substance P receptor from a 50% binding concentration (IC50) and an affinity (Kd) of [^3H]substance P for the substance P receptor.

human NK2 receptor = biological target: T2, human NK2 receptor (Homo sapiens, UniProt P21452); assay: Test for binding to human NK2 receptor
T2 construct: expressed in transfected cells; host or cells: COS cells
T2 sequence (P21452 1-398): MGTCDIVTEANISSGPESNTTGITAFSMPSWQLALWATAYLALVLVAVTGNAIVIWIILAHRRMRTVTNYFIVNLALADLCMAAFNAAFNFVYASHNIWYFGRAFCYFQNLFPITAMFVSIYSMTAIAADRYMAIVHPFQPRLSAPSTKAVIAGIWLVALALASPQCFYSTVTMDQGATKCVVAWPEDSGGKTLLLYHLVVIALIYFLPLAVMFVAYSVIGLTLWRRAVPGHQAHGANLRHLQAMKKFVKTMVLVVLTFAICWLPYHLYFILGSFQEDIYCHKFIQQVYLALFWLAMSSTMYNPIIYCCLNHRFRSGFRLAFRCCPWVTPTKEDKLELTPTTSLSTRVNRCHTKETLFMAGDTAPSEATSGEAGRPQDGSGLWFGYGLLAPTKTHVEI
Outline: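 Radioligand binding with [^3H]SR 48968 on cryopreserved COS cells expressing human NK2 receptor (5.0×10^5 cells/mL), in 50 mM Tris-HCl pH 7.4 with BSA, MnCl2 and protease inhibitors. Bound label collected on PEI-treated GF/B filters, counted by liquid scintillation; Ki derived from IC50 and radioligand Kd.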

muscarine M3 receptor = assay: Effect of suppressing methacholine-induced airway contraction (in vivo, intratracheal administration); set-up: species or system guinea pig; details: guinea pigs, intratracheal administration 60 minutes before 30 μg/kg i.v. methacholine; AUC of increase in airway pressure over 10 minutes
Description: Using healthy guinea pigs (body weight, 350 to 550 g; Hartley male guinea pigs), the effect of suppressing airway contraction induced by methacholine, which is a muscarine receptor agonist, was examined by a modified method of Konzett-Roessler (Naunyn-Schmiedebergs Arch. Exp. Pathol. Pharmakol. 195, 71 [1940]) using airway pressure as an indicator.
A tracheal cannula and a venous cannula were attached to a guinea pig anesthetized with pentobarbital (50 mg/mL of solution, 0.40 to 0.50 mL/body, subcutaneous administration). An arterial cannula filled with heparin-containing physiological saline (100 U/mL) was further attached, and blood pressure and heart rate were monitored via an amplifier and an instantaneous heart rate meter. Subsequently, gallamine (20 mg/body, intravenous administration) was administered to terminate spontaneous breathing, and then 10 mL/kg of positive pressure breathing (Ugo-Basile Biological Research Apparatus, Cat. No. 7025) was rapidly performed at 60 times/min. The airway pressure during artificial breathing was detected with a pressure transducer (TP-200T or TP-400T; Nihon Kohden Corporation) attached to a side branch of the tracheal cannula, amplified (AP-601G; Nihon Kohden Corporation), and recorded in a recorder. After the airway pressure, blood pressure, and heart rate were stabilized, 30 μg/kg of methacholine was intravenously administered from the venous cannula to induce airway contraction, and the airway pressure was measured for the following 10 minutes.
A test substance was dissolved in 5% glucose solution, and a 0.5 mL/kg solution was administered intratracheally with an intratracheal administration apparatus (model 1A-1B; Penn-Century, Inc.) 60 minutes before stimulation with methacholine.
The AUC of increase in the airway pressure over 10 minutes after administration of methacholine was measured as the intensity of methacholine-induced airway contraction and calculated as an ID50 value from the inhibition rate based on the value of the control group (a 5% glucose solution intratracheal administration group).

[1] = COS cells expressing human NK2 receptor, [3H]SR 48968 1 nM, Ki from IC50 and Kd, read-out: Ki

CN(CCN1CCC(OC(=O)Nc2ccccc2-c2ccccc2)CC1)C(=O)CCNc1ccc(C(=O)N(C)CCCN(C)C(=O)CO[C@H]2Cc3ccccc3C23CCN(CC[C@@]2(c4ccc(F)cc4)CN(C(=O)c4cc(C(F)(F)F)cc(C(F)(F)F)c4)CO2)CC3)cc1 [Example 94, 1-{2-[(N-{4-[{3-[({[(2S)-1′-{2-[(5R)-3-[3,5-Bis(trifluoromethyl)benzoyl]-5-(4-fluorophenyl)-1,3-oxazolidin-5-yl]ethyl}-2,3-dihydrospiro[indene-1,4′-piperidin]-2-yl]oxy}acetyl)(methyl)amino]propyl}(methyl)carbamoyl]phenyl}-β-alanyl)(methyl)amino]ethyl}piperidin-4-yl biphenyl-2-ylcarbamate]
Ki (substance P receptor): 0.81 nM | Ki (human NK2 receptor; [1]): 0.75 nM | ID50 (muscarine M3 receptor): 0.0395 mg/kg

CN(CCN1CCC(OC(=O)Nc2ccccc2-c2ccccc2)CC1)C(=O)CCOCCNc1ccc(C(=O)N(C)CCCN(C)C(=O)CO[C@H]2Cc3ccccc3C23CCN(CC[C@@]2(c4ccc(F)cc4)CN(C(=O)c4cc(C(F)(F)F)cc(C(F)(F)F)c4)CO2)CC3)cc1 [Example 29, 1-{2-[{3-[2-({4-[{3-[({[(2S)-1′-{2-[(5R)-3-[3,5-Bis(trifluoromethyl)benzoyl]-5-(4-fluorophenyl)-1,3-oxazolidin-5-yl]ethyl}-2,3-dihydrospiro[indene-1,4′-piperidin]-2-yl]oxy}acetyl)(methy)amino]propyl}(methyl)carbamoyl]phenyl}amino)ethoxy]propanoyl}(methyl)amino]ethyl}piperidin-4-yl biphenyl-2-ylcarbamate trihydrochloride]
Ki (substance P receptor): 1.4 nM | Ki (human NK2 receptor; [1]): 0.76 nM | ID50 (muscarine M3 receptor): 0.0266 mg/kg

CN(CCN1CCC(OC(=O)Nc2ccccc2-c2ccccc2)CC1)C(=O)CCCNc1ccc(C(=O)N(C)CCCN(C)C(=O)CO[C@H]2Cc3ccccc3C23CCN(CC[C@@]2(c4ccc(F)cc4)CN(C(=O)c4cc(C(F)(F)F)cc(C(F)(F)F)c4)CO2)CC3)cc1 [Example 34, 1-(2-{[4-({4-[{3-[({[(2S)-1′-{2-[(5R)-3-[3,5-Bis(trifluoromethyl)benzoyl]-5-(4-fluorophenyl)-1,3-oxazolidin-5-yl]ethyl}-2,3-dihydrospiro[indene-1,4′-piperidin]-2-yl]oxy}acetyl)(methyl)amino]propyl}(methyl)carbamoyl]phenyl}amino)butanoyl](methyl)amino}ethyl)piperidin-4-yl biphenyl-2-ylcarbamate trihydrochloride]
Ki (substance P receptor): 1 nM | Ki (human NK2 receptor): 0.54 nM | ID50 (muscarine M3 receptor): 0.0251 mg/kg

CN(CCN1CCC(OC(=O)Nc2ccccc2-c2ccccc2)CC1)C(=O)CCCCCNc1ccc(C(=O)N(C)CCN(C)C(=O)CO[C@H]2Cc3ccccc3C23CCN(CC[C@@]2(c4ccc(F)cc4)CN(C(=O)c4cc(C(F)(F)F)cc(C(F)(F)F)c4)CO2)CC3)cc1 [Example 15, 1-(2-{[6-({4-[{2-[({[(2S)-1-{2-[(5R)-3-[3,5-Bis(trifluoromethyl)benzoyl]-5-(4-fluorophenyl)-1,3-oxazolidin-5-yl]ethyl}-2,3-dihydrospiro[indene-1,4′-piperidin]-2-yl]oxy}acetyl)(methyl)amino]ethyl}(methyl)carbamoyl]phenyl}amino)hexanoyl](methyl)amino}ethyl)piperidin-4-yl biphenyl-2-ylcarbamate]
Ki (substance P receptor): 1.5 nM | Ki (human NK2 receptor; [1]): 0.91 nM | ID50 (muscarine M3 receptor): 0.0375 mg/kg

CN(CCN1CCC(OC(=O)Nc2ccccc2-c2ccccc2)CC1)C(=O)CCCN(C)c1ccc(C(=O)N(C)CCCN(C)C(=O)CO[C@H]2Cc3ccccc3C23CCN(CC[C@@]2(c4ccc(F)cc4)CN(C(=O)c4cc(C(F)(F)F)cc(C(F)(F)F)c4)CO2)CC3)cc1 [Example 36, 1-{2-[{4-[{4-[{3-[({[(2S)-1′-{2-[(5R)-3-[3,5-Bis(trifluoromethyl)benzoyl]-5-(4-fluorophenyl)-1,3-oxazolidin-5-yl]ethyl}-2,3-dihydrospiro[indene-1,4′-piperidin]-2-yl]oxy}acetyl)(methyl)amino]propyl}(methyl)carbamoyl]phenyl}(methyl)amino]butanoyl}(methyl)amino]ethyl}piperidin-4-yl biphenyl-2-ylcarbamate trihydrochloride]
Ki (substance P receptor): 1.4 nM | Ki (human NK2 receptor): 0.96 nM | ID50 (muscarine M3 receptor): 0.0146 mg/kg

CN(CCN1CCC(OC(=O)Nc2ccccc2-c2ccccc2)CC1)C(=O)CCCCCNc1ncc(C(=O)N(C)CCCN(C)C(=O)CO[C@H]2Cc3ccccc3C23CCN(CC[C@@]2(c4ccc(F)cc4)CN(C(=O)c4cc(C(F)(F)F)cc(C(F)(F)F)c4)CO2)CC3)cn1 [Example 14, 1-(2-{[6-({5-[{3-[({[(2S)-1′-{2-[(5R)-3-[3,5-Bis(trifluoromethyl)benzoyl]-5-(4-fluorophenyl)-1,3-oxazolidin-5-yl]ethyl}-2,3-dihydrospiro[indene-1,4′-piperidin]-2-yl]oxy}acetyl)(methyl)amino]propyl}(methyl)carbamoyl]pyrimidin-2-yl}amino)hexanoyl](methyl)amino}ethyl)piperidin-4-yl biphenyl-2-ylcarbamate trihydrochloride]
Ki (substance P receptor): 1.9 nM | Ki (human NK2 receptor): 0.67 nM | ID50 (muscarine M3 receptor): 0.0129 mg/kg

CN(CCN1CCC(OC(=O)Nc2ccccc2-c2ccccc2)CC1)C(=O)CCCCCN(C)c1ccc(C(=O)N(C)CCCN(C)C(=O)CO[C@H]2Cc3ccccc3C23CCN(CC[C@@]2(c4ccc(F)cc4)CN(C(=O)c4cc(C(F)(F)F)cc(C(F)(F)F)c4)CO2)CC3)cc1 [Example 76, 1-{2-[{6-[{4-[{3-[({[(2S)-1′-{2-[(5R)-3-[3,5-Bis(trifluoromethyl)benzoyl]-5-(4-fluorophenyl)-1,3-oxazolidin-5-yl]ethyl}-2,3-dihydrospiro[indene-1,4′-piperidin]-2-yl]oxy}acetyl)(methyl)amino]propyl}(methyl)carbamoyl]phenyl}(methyl)amino]hexanoyl}(methyl)amino]ethyl}piperidin-4-yl biphenyl-2-ylcarbamate]
Ki (substance P receptor): 2.7 nM | Ki (human NK2 receptor; [1]): 1 nM | ID50 (muscarine M3 receptor): 0.0292 mg/kg

Cc1cc(NCCCCCC(=O)N(C)CCN2CCC(OC(=O)Nc3ccccc3-c3ccccc3)CC2)ccc1C(=O)N(C)CCCN(C)C(=O)CO[C@H]1Cc2ccccc2C12CCN(CC[C@@]1(c3ccc(F)cc3)CN(C(=O)c3cc(C(F)(F)F)cc(C(F)(F)F)c3)CO1)CC2 [Example 18, 1-(2-{[6-({4-[{3-[({[(2S)-1′-{2-[(5R)-3-[3,5-Bis(trifluoromethyl)benzoyl]-5-(4-fluorophenyl)-1,3-oxazolidin-5-yl]ethyl}-2,3-dihydrospiro[indene-1,4′-piperidin]-2-yl]oxy}acetyl)(methyl)amino]propyl}(methyl)carbamoyl]-3-methylphenyl}amino)hexanoyl](methyl)amino}ethyl)piperidin-4-yl biphenyl-2-ylcarbamate trihydrochloride]
Ki (substance P receptor): 1.8 nM | Ki (human NK2 receptor): 0.42 nM | ID50 (muscarine M3 receptor): 0.0389 mg/kg

Cc1cc(NCCCCCC(=O)N(C)CCN2CCC(OC(=O)Nc3ccccc3-c3ccccc3)CC2)sc1C(=O)N(C)CCCN(C)C(=O)CO[C@H]1Cc2ccccc2C12CCN(CC[C@@]1(c3ccc(F)cc3)CN(C(=O)c3cc(C(F)(F)F)cc(C(F)(F)F)c3)CO1)CC2 [Example 30, 1-(2-{[6-({5-[{3-[({[(2S)-1′-{2-[(5R)-3-[3,5-Bis(trifluoromethyl)benzoyl]-5-(4-fluorophenyl)-1,3-oxazolidin-5-yl]ethyl}-2,3-dihydrospiro[indene-1,4′-piperidin]-2-yl]oxy}acetyl)(methyl)amino]propyl}(methyl)carbamoyl]-4-methyl-2-thienyl}amino)hexanoyl](methyl)amino}ethyl)piperidin-4-yl biphenyl-2-ylcarbamate trihydrochloride]
Ki (substance P receptor): 1.9 nM | Ki (human NK2 receptor): 0.71 nM | ID50 (muscarine M3 receptor): 0.0088 mg/kg

Reference: patent publication US8476253B2, “Amide derivative” (Daiichi Sankyo Company, Limited, priority 2009, dated 2013)
